In US8143268B2, “Bicyclic pyrimidinones and uses thereof” (Avexa Limited, priority 2006, dated 2012):
Like-named read-outs stand apart in the source and are kept apart here.

Legend:
[1] = target: T1, integrase (Human immunodeficiency virus type 1 group M subtype B, UniProt P04585); assay: HIV integrase 3′ processing/strand transfer assay (IC50); type: biochemical
T1 construct: Each reaction (40 ul) contains 30 nM substrate DNA ad 400 ng integrase
Procedure: A combined 3′-processing/strand transfer assay procedure similar to that published (Ovenden et al. Phytochemistry. 2004 December; 65(24):3255-9.) could be used. The assay could be adapted to a 96 well plate format. Briefly, 400 ng of […] is incubated with 30 nM substrate DNA, consisting of annealed U5 LTR sequence oligonucleotides tagged with Digoxigenin (DIG; 5′-[…]-DIG-3′ (SEQ ID NO: 1)) or biotin (5′-Bio-[…]-3′ (SEQ ID NO: 2)) so that each substrate has either a DIG or Bio tag on opposite strands. Reactions are carried out for 2 hrs at 37° C., products generated as a result of 3′ processing and strand transfer activity are bound to streptavidin plates and detected with using anti-DIG-alkaline phosphatase conjugate and p-nitro phenyl phosphate substrate.
The strand transfer specific assay is of similar format to that of the 3′ processing/strand transfer combined assay except that it uses a biotinylated substrate that represents a pre-processed LTR end (5′-Bio-[…]-3′ (SEQ ID NO: 3)).
Oligonucleotides 5′-biotin-[…]-3′ (SEQ ID NO: 3) and 5′-[…]-Dig-3′ (SEQ ID NO: 1) are annealed in 10 mM Tris-Cl pH8.0, 100 mM NaCl, 2 mM EDTA at a final concentration of 30 uM.
Each reaction (40 ul) contains 30 nM substrate DNA ad 400 ng integrase in a reaction buffer comprising 20 mM Tris-Cl pH7.5, 25 mM NaCl, 5 mM MnCl2, 5 mM MgCl2, 5 mM B-ME, 50 ug/mL BSA, 0.05% (v/v) Tween-20.
Compounds are added in DMSO at 1/10 final reaction volume.
Reactions are incubated at 37° C. for 2 hr followed by the addition of 60 ul adjustment buffer containing 33 mM Tris-Cl pH 7.5, 664 mM NaCl, 16.6 mM EDTA, 0.166 mg/mL sonicated salmon sperm DNA.
The samples are then transferred to Streptavidin coated plates and products of the enzyme reactions are allowed to bind for 1 hr at room temperature.
Plates are then washed with 3×5 min with 30 mM NaOH, 200 mM NaCl, 1 mM EDTA then 3×5 min with wash 2: 10 mM Tris-Cl pH8.0, 6 mM EDTA, 0.1 mg/mL nuclease free BSA.
Anti-digoxigenin-phosphatase Fab (Roche, 0.1 U/mL)), diluted 1/2000 in wash 2 buffer is then added to each well and plates incubated 1 hr at 37° C.
Plates are then washed 3 times with TBS— Tween-20 (0.1%) then twice with TBS and 100 ul substrate (1 mg/mL p-nitrophenylphosphate in 0.1M Tris, pH 9.8) is added and plates incubated until sufficient colour is developed.

[2] = Compound cytotoxicity (CC50); type: cell-based; conditions: wells without virus
Procedure: (§1) Cells are seeded into 96 well microtitre plates at 50,000 cells per 50 μl per well in RF-containing […] polybrene (RF-10/2). Compounds are prepared to 4× final concentration in RF-10/2, and 30 L added to cells. Virus (40 L in RF-10/2 containing 1600 pfu) is added to each well or 40 L RF-10/2 for negative controls and for assaying compound cytotoxicity. After 24 hrs, an additional 90 μL of media or media containing 1× compound is added to each well. At 4 days post infection, 100 μL of media is removed from each well and replaced with 100 μl of fresh media with or without compound. Forty eight hours later supernatants are harvested and levels of extracellular p24 determined. Supernatants are diluted 1 in 10,000 and p24 levels assayed using the Vironostika p24 assay kit. EC50 is calculated as the concentration required to inhibit HIV p24 production to 50% that of no drug controls.

[3] = tested on: HIV; assay: Inhibition of HIV replication (p24); type: cell-based; conditions: Human immunodeficiency virus 1; concentration inhibiting HIV p24 production to 50% of no drug controls
Procedure: as §1

[4] = target: T2, HIV integrase enzyme (Q148K) (Human immunodeficiency virus type 1 group M subtype B, UniProt P04585, Q1295K); assay: Strand transfer assay, mutant (Q148K) HIV integrase; type: biochemical; conditions: FIG. 1
Procedure: A strand transfer assay procedure similar to that published (Ovenden et al. Phytochemistry. 2004 December; 65(24):3255-9.) is used. Briefly, 400 ng of the enzyme, wild type or drug resistant mutant, is mixed with the compound to be tested and incubated with 30 nM substrate DNA. The substrate DNA is designed to mimic HIV DNA termini that has undergone 3′ end processing, and consists of the annealed U5 LTR sequence oligonucleotides tagged with Digoxigenin (DIG; 5′-[…]-DIG-3′ (SEQ ID NO: 1)) or biotin (5′-Bio-[…]-3′ (SEQ ID NO: 3)) so that each substrate has either a DIG or Bio tag on opposite strands. Reactions are carried out for 1 hr at 37° C. Products generated as a result of strand transfer activity are bound to streptavidin plates and detected using anti-DIG-alkaline phosphatase conjugate and p-nitro phenyl phosphate substrate.
FIG. 1 represents as an example, strand transfer assay results from selected compounds against wild-type integrase and the integrase containing the Q148K mutation.
HIV integrase was mutated within a shuttle vector (pGEM) containing the majority of the HIV-I gag and pol sequence using site directed mutagenesis to generate integrase sequences that have been published as conferring resistance to published integrase inhibitors. These include, but are not limited to, mutations such as Q148K. […]

[5] = target: T2, HIV integrase enzyme (Q148K); conditions: Q148K mutant enzyme; cited from earlier work
[6] = integrase assay, which of Example 28.1/28.2 not stated, read-out: IC50

SMILES | IC50 [1, 6] | IC50 [1] | CC50 at 6 days [2] | EC50 [3] | also measured
Cc1ccc2nc(-c3nnc(-c4ccccc4)o3)c(O)c(=O)n2c1 | > 1000 nM |  |  |  | 
Cc1ccc2nc(-c3nnc(Cc4ccc(F)cc4)s3)c(O)c(=O)n2c1 | 1 to 1000 nM |  |  |  | 
Cc1ccc2nc(-c3ncc(-c4ccc(F)cc4)o3)c(O)c(=O)n2c1 | > 1000 nM |  |  |  | 
Cc1ccc2nc(-c3ncc(Cc4ccc(F)cc4)o3)c(O)c(=O)n2c1 | 1 to 1000 nM |  |  |  | 
Cc1ccc2nc(-c3noc(Cc4ccc(F)cc4)n3)c(O)c(=O)n2c1 | 1 to 1000 nM |  |  |  | 
O=C(NCc1ccc(F)cc1)c1nc2ccc(Br)cn2c(=O)c1O [7-Br, CONHCH2 (4F-Ph), 7-Bromo-3-hydroxy-4-oxo-4H-pyrido[1,2-a]pyrimidine-2-carboxylic acid 4-fluoro-benzylamide] |  | 1000 to 10000 nM | > 1000 nM | 1 to 1000 nM | 
Cc1ccc2nc(C(=O)NCc3ccc(Cl)c(Cl)c3)c(O)c(=O)n2c1 [7-Me, CONHCH2 (3,4-ClPh), 3-Hydroxy-7-methyl-4-oxo-4H-pyrido[1,2-a]pyrimidine-2-carboxylic acid 3,4-dichloro-benzylamide] |  | 1 to 1000 nM | > 1000 nM | 1 to 1000 nM | 
Cc1ccc2nc(C(=O)NCc3ccc(F)cc3)c(O)c(=O)n2c1 [7-Me, CONHCH2 (4F-Ph), 3-Hydroxy-7-methyl-4-oxo-4H-pyrido[1,2-a]pyrimidine-2-carboxylic acid 4-fluoro-benzylamide] |  | 1000 to 10000 nM | > 1000 nM | 1 to 1000 nM | 
O=C(NCc1ccc(Cl)c(Cl)c1)c1nc2ccc(N3CCOCC3)cn2c(=O)c1O [Example 6.13, 3-Hydroxy-7-morpholin-4-yl-4-oxo-4H-pyrido[1,2-a]pyrimidine-2-carboxylic acid 3,4-dichloro-benzylamide] |  |  |  |  | activity against HIV integrase enzyme (Q148K) [4]: particularly high activity
Cc1nnc(C(=O)NC(C)(C)c2nc(C(=O)NCc3ccc(F)cc3)c(O)c(=O)n2C)o1 [Raltegravir] |  |  |  |  | resistance of Q148K HIV integrase to published integrase inhibitors [5]: resistant
